Common to all, as to format: in vivo
Assay [1] has as its system Plutella xylostella (diamond back moth). Put plainly: Example B3: Plutella xylostella, treated artificial diet. The note with it: 120 h, application rate 200 ppm, L2 larvae, 5 days after infestation, read-out: effect in at least one of the two categories (mortality or growth inhibition). The procedure:
24-well microtiter plates with artificial diet were treated with aqueous test solutions prepared from 10,000 ppm DMSO stock solutions by pipetting. After drying, the plates were infested with L2 larvae (10 to 15 per well). The samples were assessed for mortality and growth inhibition in comparison to untreated samples 5 days after infestation.

Assay [2] has as its system Spodoptera littoralis (Egyptian cotton leaf worm). Briefly: Example B1: Spodoptera littoralis, sprayed cotton leaf discs. The conditions noted are these: foliar, 72 h, application rate 200 ppm, L1 larvae, 3 days after infestation, read-out: control in at least one of the three categories (mortality, anti-feedancy or growth inhibition). As to the method:
Cotton leaf discs were placed on agar in 24-well microtiter plates and sprayed with aqueous test solutions prepared from 10,000 ppm DMSO stock solutions. After drying the leaf discs were infested with five L1 larvae. The samples were assessed for mortality, anti-feedant effect, and growth inhibition in comparison to untreated samples 3 days after infestation. Control of Spodoptera littoralis by a test sample is when at least one of mortality, anti-feedant effect, and growth inhibition is higher than the untreated sample.

Assay [3] deals with Diabrotica balteata (corn root worm). Briefly: Example B4: Diabrotica balteata, sprayed maize sprouts. The note with it: 96 h, application rate 200 ppm, L2 larvae, 4 days after infestation, read-out: effect in at least one of the two categories (mortality or growth inhibition). The procedure:
Maize sprouts, placed on an agar layer in 24-well microtiter plates were treated with aqueous test solutions prepared from 10,000 ppm DMSO stock solutions by spraying. After drying, the plates were infested with L2 larvae (6 to 10 per well). The samples were assessed for mortality and growth inhibition in comparison to untreated samples 4 days after infestation.

The test system of assay [4] is Spodoptera littoralis (Egyptian cotton leaf worm). Put plainly: Example B2: Spodoptera littoralis, systemic test via lettuce roots in agar. The note with it: 144 h, application rate 12.5 ppm, Spodoptera eggs, 6 days after infestation, read-out: control in at least one of the three categories (mortality, anti-feedancy or growth inhibition). From the text:
Test compounds were applied by pipette from 10,000 ppm DMSO stock solutions into 24-well plates and mixed with agar. Lettuce seeds were placed on the agar and the multi well plate was closed by another plate which contains also agar. After 7 days the roots have absorbed the compound and the lettuce has grown into the lid plate. The lettuce leafs were now cut off into the lid plate. Spodoptera eggs were pipetted through a plastic stencil on a humid gel blotting paper and the plate closed with it. The samples were assessed for mortality, anti-feedant effect and growth inhibition in comparison to untreated samples 6 days after infestation.
The following compounds gave an effect of at least 80% control in at least one of the three categories (mortality, anti-feedancy or growth inhibition) at an application rate of 12.5 ppm: P2, P3, P8, P9, P11 and P17, P19, P20, P22, P23, P25, P26, P28, P30, P31, P32, P33, P40, P42, P43, P44, P45, P46, P47, P48, P49, P50, P51, P52, P53, P54, P60 and P61.

The test system of assay [5] is Euschistus heros (neotropical brown stink bug). Put plainly: Example B6: Euschistus heros, sprayed soybean leaf. The conditions noted are these: 120 h, application rate 200 ppm, N-2 nymphs, 5 days after infestation. The source says: Soybean leaf on agar in 24-well microtiter plates were sprayed with aqueous test solutions prepared from 10,000 ppm DMSO stock solutions. After drying the leaf were infested with N-2 nymphs.

Take `CCS(=O)(=O)c1cc(-c2ccc(Cl)c(Cl)c2)cnc1C(=O)/N=c1\sc(C(F)(F)F)nn1C` [Compound P36]: the percent effect (mortality or growth inhibition) at 200 ppm in assay [1] and in assay [3] was no less than 80% throughout. Moreover, the percent control (mortality, anti-feedant effect or growth inhibition) at 200 ppm in assay [2] is no less than 80%.
For the compound `CCS(=O)(=O)c1cc(-c2cccc(SC)c2)cnc1C(=O)/N=c1\sc(C(F)(F)F)nn1C` [Compound P30], the percent control (mortality, anti-feedant effect or growth inhibition) at 12.5 ppm in assay [4] is no less than 80%. In addition, the percent effect (mortality or growth inhibition) at 200 ppm in assay [3] was no less than 80%.
The mortality is the share of the test organisms that died. Read a low mortality as a weak lethal effect. As to `CCS(=O)(=O)c1cc(-c2cc(Cl)ccn2)cnc1C(=O)/N=c1\sc(C(F)(F)F)nn1C` [Compound P41], the percent effect (mortality or growth inhibition) at 200 ppm in assay [1] and in assay [3] was no less than 80% throughout. Further, in assay [2], the percent control (mortality, anti-feedant effect or growth inhibition) at 200 ppm is no less than 80%. In assay [5], this compound gave a mortality at 200 ppm of no less than 80%.
Consider `CCS(=O)(=O)c1cc(-c2cc(Cl)cc(Cl)c2)cnc1C(=O)/N=c1\sc(C(F)(F)F)nn1C` [Compound P24], for which the percent control (mortality, anti-feedant effect or growth inhibition) at 200 ppm in assay [2] was no less than 80%.
As to `CCSc1cc(-c2ccc(C(F)(F)F)cc2)cnc1C(=O)N=c1ccc(SC(F)(F)F)cn1C` [Compound P15], the percent effect (mortality or growth inhibition) at 200 ppm in assay [3] is no less than 80%.
Regarding `CCS(=O)(=O)c1cc(-c2cc(Cl)c(F)c(Cl)c2)cnc1C(=O)/N=c1\sc(C(F)(F)F)nn1C` [Compound P27], the percent effect (mortality or growth inhibition) at 200 ppm in assay [1] and in assay [3] was no less than 80% each time. Moreover, the percent control (mortality, anti-feedant effect or growth inhibition) at 200 ppm in assay [2] was no less than 80%.
`CCS(=O)(=O)c1cc(-c2ccc(OC(F)(F)F)cc2)cnc1C(=O)/N=c1\sc(C(F)(F)F)nn1C` [Compound P22]: the percent effect (mortality or growth inhibition) at 200 ppm in assay [1] and in assay [3] was no less than 80% throughout. In addition, the percent control (mortality, anti-feedant effect or growth inhibition) at 12.5 ppm in assay [4] was no less than 80%. Also, in assay [2], the percent control (mortality, anti-feedant effect or growth inhibition) at 200 ppm is no less than 80%.
On to `CCS(=O)(=O)c1cc(-c2ccc(Cl)cc2Cl)cnc1C(=O)/N=c1\sc(C(F)(F)F)nn1C` [Compound P34], for which the percent effect (mortality or growth inhibition) at 200 ppm in assay [1] and in assay [3] was no less than 80% in each case. Also, the percent control (mortality, anti-feedant effect or growth inhibition) at 200 ppm in assay [2] was no less than 80%. In assay [5], this compound returned a mortality at 200 ppm of no less than 80%.
With `CCS(=O)(=O)c1cc(-c2ncc(C#N)cn2)cnc1C(=O)/N=c1\sc(C(F)(F)F)nn1C` [Compound P68], the percent effect (mortality or growth inhibition) at 200 ppm in assay [1] and in assay [3] was no less than 80% each time. For the same compound, the mortality at 200 ppm in assay [5] was no less than 80%.
Regarding `CCS(=O)(=O)c1ccc(-c2cnc(C(=O)/N=c3\sc(C(F)(F)F)nn3C)c(S(=O)(=O)CC)c2)cc1` [Compound P4], the percent effect (mortality or growth inhibition) at 200 ppm in assay [1] and in assay [3] was no less than 80% each time. In assay [2], the percent control (mortality, anti-feedant effect or growth inhibition) at 200 ppm was no less than 80%.
Turning to `CCSc1cc(-n2ccc(C(F)(F)F)n2)cnc1C(=O)/N=c1\sc(C(F)(F)F)nn1C` [Compound P13], the percent effect (mortality or growth inhibition) at 200 ppm in assay [3] was no less than 80%.
Consider `CCS(=O)(=O)c1cc(-c2ncc(C(F)(F)F)s2)cnc1C(=O)/N=c1\sc(C(F)(F)F)nn1C` [Compound P58], for which, in assay [2], the percent control (mortality, anti-feedant effect or growth inhibition) at 200 ppm was no less than 80%. Also, in assay [3], the percent effect (mortality or growth inhibition) at 200 ppm was no less than 80%.
For `CCS(=O)(=O)c1cc(-c2cccc(C(F)(F)F)c2)cnc1C(=O)/N=c1\sc(C(F)(F)F)nn1C` [Compound P37], the percent effect (mortality or growth inhibition) at 200 ppm in assay [1] and in assay [3] was no less than 80% in each case. In assay [2], the percent control (mortality, anti-feedant effect or growth inhibition) at 200 ppm was no less than 80%.
Consider `CCSc1cc(-c2ccc(Cl)cc2)cnc1C(=O)/N=c1\sc(C(F)(F)C(F)(F)F)nn1C` [Compound P12], for which the percent effect (mortality or growth inhibition) at 200 ppm in assay [3] is no less than 80%.
`CCS(=O)(=O)c1cc(-c2ccc(C#N)cn2)cnc1C(=O)/N=c1\sc(C(F)(F)F)nn1C` [Compound P69]: the percent effect (mortality or growth inhibition) at 200 ppm in assay [1] and in assay [3] was no less than 80% each time. In addition, the percent control (mortality, anti-feedant effect or growth inhibition) at 200 ppm in assay [2] was no less than 80%. Further, the mortality at 200 ppm in assay [5] was no less than 80%.
Consider `CCS(=O)(=O)c1cc(-c2cc(F)cc(F)c2)cnc1C(=O)/N=c1\sc(C(F)(F)F)nn1C` [Compound P35], for which the percent effect (mortality or growth inhibition) at 200 ppm in assay [1] and in assay [3] was no less than 80% throughout. Also, the percent control (mortality, anti-feedant effect or growth inhibition) at 200 ppm in assay [2] is no less than 80%.
As for `CCS(=O)(=O)c1cc(-c2ccc(SC)cc2)cnc1C(=O)/N=c1\sc(C(F)(F)F)nn1C` [Compound P38], the percent effect (mortality or growth inhibition) at 200 ppm in assay [1] and in assay [3] was no less than 80% throughout. For the same compound, the percent control (mortality, anti-feedant effect or growth inhibition) at 200 ppm in assay [2] is no less than 80%.
As to `CCS(=O)(=O)c1cc(-c2cc(C#N)ccn2)cnc1C(=O)/N=c1\sc(C(F)(F)F)nn1C` [Compound P62], the percent effect (mortality or growth inhibition) at 200 ppm in assay [1] was no less than 80%. Moreover, the percent control (mortality, anti-feedant effect or growth inhibition) at 200 ppm in assay [2] was no less than 80%. In assay [5], this compound showed a mortality at 200 ppm of no less than 80%.
For the compound `CCS(=O)(=O)c1cc(-n2ccc(C(F)(F)F)n2)cnc1C(=O)/N=c1\sc(C(F)(F)F)nn1C` [Compound P14], the percent effect (mortality or growth inhibition) at 200 ppm in assay [1] and in assay [3] was no less than 80% in each case. Besides, the percent control (mortality, anti-feedant effect or growth inhibition) at 200 ppm in assay [2] is no less than 80%.
Take `CCS(=O)(=O)c1cc(-c2ncc(Cl)cn2)cnc1C(=O)/N=c1\sc(C(F)(F)F)nn1C` [Compound P65]: the percent effect (mortality or growth inhibition) at 200 ppm in assay [1] and in assay [3] was no less than 80% each time. In assay [2], the percent control (mortality, anti-feedant effect or growth inhibition) at 200 ppm is no less than 80%. Besides, the mortality at 200 ppm in assay [5] is no less than 80%.
As to `CCS(=O)(=O)c1cc(-c2cc(F)cc(F)c2)cnc1C(=O)/N=c1\sc(C(F)(F)C(F)(F)F)nn1C` [Compound P67], the percent effect (mortality or growth inhibition) at 200 ppm in assay [1] and in assay [3] was no less than 80% each time. The mortality at 200 ppm in assay [5] is no less than 80%.
Regarding `CCS(=O)(=O)c1cc(-n2ccc(C(F)(F)F)n2)cnc1C(=O)/N=c1\sc(C(F)(F)C(F)(F)F)nn1C` [Compound P9, (N)-3-ethylsulfonyl-N-[3-methyl-5-(1,1,2,2,2-pentafluoroethyl)-1,3,4-thiadiazol-2-ylidene]-5-[3-(trifluoromethyl)pyrazol-1-yl]pyridine-2-carboxamide], the percent effect (mortality or growth inhibition) at 200 ppm in assay [1] and in assay [3] was no less than 80% each time. The percent control (mortality, anti-feedant effect or growth inhibition) at 12.5 ppm in assay [4] was no less than 80%. The percent control (mortality, anti-feedant effect or growth inhibition) at 200 ppm in assay [2] is no less than 80%.
Regarding `CCS(=O)(=O)c1ccc(-c2ccc(C(F)(F)F)cc2)nc1C(=O)/N=c1\sc(C(F)(F)F)nn1C` [Compound P21, (N)-3-ethylsulfonyl-N-[3-methyl-5-(trifluoromethyl)-1,3,4-thiadiazol-2-ylidene]-6-[4-(trifluoromethyl)phenyl]pyridine-2-carboxamide], in assay [2], the percent control (mortality, anti-feedant effect or growth inhibition) at 200 ppm is no less than 80%.

These data come from patent US10494366B2, “Pesticidally active amide heterocyclic derivatives with sulphur containing substituents” (Syngenta Participations AG, priority 2014, dated 2019).
